The nature of series [1]: Pre-steady-state phosphotransfer of human NDPK-A and mutants with d4T-TP. The series is classed as biochemical. As to conditions: ratio of catalytic efficiencies. How it is done: (§1) FIG. 3 depicts the catalytic efficiency of NDPK-A and mutants for nucleoside analogs. The rates of phosphorylation of pure recombinant NDP kinases (1 μM) were measured at the pre-steady state in a fluorescence stopped-flow with d4T-TP (10 to 80 μM). The catalytic efficiency (expressed in M^−1s^−1) was determined from the variation of the rate as a function of analog as shown in FIG. 2 (▾, NDPK-A, ♦ L55H, ● N115S, ▪ L55H-N115S).
The intrinsic fluorescence properties of the three mutants were not affected by the mutations and were quenched upon phosphorylation of the catalytic His, as observed with wild type NDP kinase (Deville-Bonne, 1996). […]
As the diphosphate form of analogs were not always available, the triphosphate analogs were used to study phosphate transfer in reaction as in Scheme I. Experiments were performed with an Hi-Tech DX2 microvolume stopped-flow reaction (Schneider, 1998) at Aexc=296 nm (for Ado derivatives) or […] (for other nucleotides), 2 mm excitation slit and a 320 nm cutoff filter at the emission. After mixing NDPK (1 μM) and NTP or an analogTP (10-500 μM), the intrinsic protein fluorescence was recorded for 10-200 sec. In each experiment, 400 pairs of data were recorded, and the data from 3-4 identical experiments were averaged and fitted to a number of non-linear analytical equations using the software provided by Hi-Tech. […]

Series [2] can be described thus: Human NDPK-A mutants, summary over several nucleotide analogs compared to natural nucleotides. The series is classed as biochemical. As to the method: (§2) The activity assays were performed at the pre-steady state level.
(§3) R, the specificity change, is the ratio of the catalytic efficiencies (for analog versus natural nucleotide) of the mutant compared to the wild type enzyme.
The mutants described so far show altered specificity for antiviral drugs and natural nucleotides. Such a switch is usually defined as R, the specificity change, reflecting the ability of a mutant enzyme to prefer the analog rather than the natural nucleotide according to the expression: [formula]
where R is the ratio of the specificity factors of the mutant compared to the original enzyme, with the specificity factor of an enzyme being defined as the ratio of the catalytic efficiencies (CE=k2/KS) for a nucleotide analog and the natural nucleotide.

Series [3] can be described thus: Steady-state NDP kinase activity, coupled enzymes (pyruvate kinase, lactate dehydrogenase). It counts as biochemical. As to conditions: for specific activity: standard conditions: [ATP]=1 mM, [dTDP]=0.2 mM, 20° C. As to the method: (§4) The activity of NDP kinase was measured at 20° C. with ATP and dTDP as substrates using coupled enzymes (pyruvate kinase and lactate dehydrogenase) (Lascu 1993). One unit is the amount of enzyme that catalyzes the phosphotransfer of 1 μmol/min under standard conditions: [ATP]=1 mM, [dTDP]=0.2 mM. Rate constants (kcat) and Michaelis constants (Km) were determined from initial velocities for two different constant ratios of nucleotide [dTDP]/[ATP]=0.05 0.1 with [ATP] varying from 0.2 to 2 mM. kcat is expressed by enzyme subunit. The ratio of the ^apparentkcat/^apparentKM at a given concentration of the other substrate is equal to the true value of kcat/KM for a ping-pong enzyme.

The target in series [4] is T1, human NDP kinase A (NDPK-A) variant L55H-N115S, SEQ ID NO: 3 (Homo sapiens, UniProt P15531, L55H/N115S).
T1 construct: made in house; host or cells: E. coli
Nature of the series: Pre-steady-state phosphotransfer, fluorescence stopped-flow. It counts as biochemical. As to conditions: substitution of Asn 115 for Ser and Leu 55 for His. As to the method:
as §1, §2, §3
(§5) Wild type human NDPK-A and the mutants were expressed and purified according to Schneider et al., 2000, Mol Pharm. Recombinant wild type and mutant Dd-NDPK were obtained as described (Schneid, 1998a), except for N119Y NDP kinase which was partially purified by Q sepharose FF chromatography. Each protein was characterized by […] electrophoresis. The concentration of 17 kDa subunits of the enzyme was either determined by Bradford assay ([…]) or using an absorbance coefficient of ΔA^280=1.249 for a 1 mg/mL solution of human wild type and N115S NDPK-A, and =0.55 for wild type and mutant N119S, N119T Dd-NDP kinases, respectively.
(§6) As the diphosphate form of analogs were not always available, the triphosphate analogs were used to study phosphate transfer in reaction as in Scheme I. Experiments were performed with an Hi-Tech DX2 microvolume stopped-flow reaction (Schneider, 1998) at Aexc=296 nm (for Ado derivatives) or […] (for other nucleotides), 2 mm excitation slit and a 320 nm cutoff filter at the emission. After mixing NDPK (1 μM) and NTP or an analogTP (10-500 μM), the intrinsic protein fluorescence was recorded for 10-200 sec. In each experiment, 400 pairs of data were recorded, and the data from 3-4 identical experiments were averaged and fitted to a number of non-linear analytical equations using the software provided by Hi-Tech.
(§7) The data were analyzed using the reaction scheme: [drawing 1]
(§8) In both the forward and the reverse reactions, the product concentration remains very low, thus the product binding can be neglected, and the observed single step could be attributed to the phosphotransfer (Schneider, 1998). The rate of this observed single step is: [formula]
and reaches a limiting value (k+2) at NTP saturation. […] Therefore, catalytic efficiencies of phosphorylation (CEphos=k+2/(k−1/k+1)=k+2/KS) were measured, which are equivalent to second order constants and allow a reliable comparison of a variety of NDP kinase substrates.

Series [5] has as its system E. coli BL21 (DE3) cells expressing L55H-N115S NDPK-A.
Experimental: (§12) The cells were grown at 37° C. in exponential phase in minimum medium. They were then complemented with various concentrations of AZT, and turbidity at 600 nm was measured after 4H. Transformation with the vector without insertion served as a control.
(§13) Wild type and mutated NDP kinases were overexpressed in E. coli cells, and the sensitivity of exponentially growing cells to AZT was assayed after induction of NDP kinase expression by IPTG. The viability was estimated by plating and counting the cells.
(§14) The sensitivity to AZT of E. coli transformed with NDP kinase expression vectors was evaluated. Bacteriea BL21 (DE3) (Stratagene) were transformed by heat shock with pJC20 vectors (Schaertl, 1998) expressing either the wild type NDPK-A (pJC20-HA), the mutant enzyme N115S (pJC20-N115S), the double mutant enzyme L55H-N115S (pJC20-L55H-N115S), or without insertion (pJC20). Bacteria were grown at 37° C. in M9 liquid medium supplemented with casaminoacids (Dilco ref.) in exponential phase, then 10 μM IPTG was added. After 1 hour, cells were complemented with AZT from 10^−7 mg/mL to 10^−4 mg/mL for 4 hours. One mL of bacteria was plated onto LB agar, incubated overnight at 37° C., and counted.
For series [6], the system named is E. coli BL21 (DE3) cells transformed with pJC20. Put plainly: AZT sensitivity of E. coli transformed with plasmid without insertion. It counts as cell-based. The note with it: versus bacteria expressing NDPK-A, N115S-NDPK-A and L55H-N115S-NDPK-A, range tested.
Experimental: as §12, §13, §14
Series [7] addresses T2, Dictyostelium discoideum NDP kinase (Dd-NDPK) variant N119T (Dictyostelium discoideum, UniProt P22887, N119T).
T2 construct: made in house
Put plainly: Steady-state kinetics with ATP and dTDP, coupled enzymes; reactivity for analogs. The series is classed as biochemical. As to conditions: dTDP. As to the method:
(§9) First, by site-directed mutagenesis, a limited set of amino acid substitutions (Ser, Thr, or Tyr) at the position of Asn 119 were introduced into the active site of Dd-NDPK. The three mutant proteins were expressed and purified to homogeneity, except N119Y, which was found unstable and poorly active (0.05% of wild type activity).
as §4

The target in series [8] is T3, Dictyostelium discoideum NDP kinase (Dd-NDPK) variant N119S, SEQ ID NO: 1 (Dictyostelium discoideum, UniProt P22887, N119S).
T3 construct: made in house
Put plainly: Steady-state kinetics with ATP and dTDP, coupled enzymes. The note with it: dTDP. It counts as biochemical. How it is done: as §9, §4

Series [9] addresses T3, Dictyostelium discoideum NDP kinase (Dd-NDPK) variant N119S, SEQ ID NO: 1. Put plainly: Pre-steady-state phosphotransfer, fluorescence stopped-flow. It counts as biochemical. As to the method:
(§10) (A) Kinetics of reaction of phosphorylated Dictyostelium wild type and N119S NDP kinases by 100 μM Acyclovir diphosphate (Acy-DP). The phosphorylated enzyme was prepared with a stoichiometry #1 as described (Deville-Bonne 1996). The kinases were preincubated with ATP in excess in buffer T (50 mM Tris-HCl, pH 7.5, 5 mM MgCl2 and 75 mM KCl). The increase in fluorescence upon mixing the phospho-enzyme (1 μM, final concentration) with Acy-DP in buffer T at 20° C. was monitored with a stopped-flow. The solid lines represent the best fit of each curve to a monoexponential.
(§11) (B) Concentration dependence of the rate constant on Acy-DP concentation. The pseudo-first order rate constant for the reaction (kobs) was plotted against Acy-DP.
All numbers in italics have already been published (Schneider, 1998, 2000) The kinetic constants were measured at the pre-steady-state level using a fluorescence stopped-flow device. The binding constants were determined at equilibrium by recording the increase in fluorescence (Schneider, 2000). Values are the average of three independent determinations.
as §5
as §6, with “Hi-Tech. All curves fitted to single exponentials.” for “Hi-Tech.”
as §7, §8
and reaches a limiting value (k+2) at NTP saturation. Saturation could not be obtained with the concentrations of any NTP used here. Therefore, catalytic efficiencies of phosphorylation (CEphos=k+2/(k−1/k+1)=k+2/KS) were measured, which are equivalent to second order constants and allow a reliable comparison of a variety of NDP kinase substrates.

Series [10] concerns the target T4, phosphorylated Dictyostelium wild type NDP kinase (Dictyostelium discoideum, UniProt P22887).
T4 construct: made in house
T4 sequence (P22887 1-155): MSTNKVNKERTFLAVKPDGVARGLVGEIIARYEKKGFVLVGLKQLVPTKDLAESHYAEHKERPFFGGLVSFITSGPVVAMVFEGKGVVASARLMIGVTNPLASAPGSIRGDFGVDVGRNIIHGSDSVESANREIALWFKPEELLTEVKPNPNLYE
Nature of the series: Stopped-flow kinetics of phosphorylated enzyme with Acy-DP, wild type. It counts as biochemical. As to conditions: phospho-enzyme 1 μM, buffer T, 20° C. As to the method: as §10, §11

The target in series [11] is T5, phosphorylated Dictyostelium N119S NDP kinase (Dictyostelium discoideum, UniProt P22887, N119S).
T5 construct: made in house
Nature of the series: Stopped-flow kinetics of phosphorylated enzyme with Acy-DP, N119S. It counts as biochemical. As to the method: as §10, §11
Acyclovir is an acyclic nucleoside analog of Gua used against Herpes Simplex Virus.

A short description of series [12]: Reactivity of Dd-NDPK Asn 119 mutants for nucleotide analogs. The series is classed as biochemical. The note with it: Dd-NDPK mutant versus wild type.
Text: as §9

Setting [13] is: identical concentrations of Acy-DP.

T1 sequence (P15531 whole entry L55H/N115S): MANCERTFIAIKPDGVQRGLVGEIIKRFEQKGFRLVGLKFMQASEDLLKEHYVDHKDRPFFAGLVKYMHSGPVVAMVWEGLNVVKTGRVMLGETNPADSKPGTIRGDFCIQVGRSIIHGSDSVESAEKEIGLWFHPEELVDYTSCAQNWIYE

On to “L55H-N115S: double mutant human NDPK-A, Leu 55 to His and Asn 115 to Ser; SEQ ID NO: 3”, for which, in series [1], the “times more slowly / fold less reaction with d4T-TP than with dTTP” value is “eight”. Moreover, in [2] (catalytic efficiencies of Table II), the “increment in activity with analogs versus NDPK-A” value was 80-100 fold. The molecule further gave a specific activity in [3] of 240 U/mg.

Take `Cc1cn([C@H]2C[C@H](N=[N+]=[N-])[C@@H](CO)O2)c(=O)[nH]c1=O` [AZT]: in series [4], the “enhancement of ability to phosphorylate” value is 200-300 times. Besides, the viable cells result in series [5] (AZT 5 and 10 ng/ml, double mutant versus wild type enzyme or N115S mutant) is recorded as “fewer viable cells”. Moreover, the “sensitization to AZT” value in series [5] (E. coli transfected with the double mutant enzyme) was “increased sensitization to AZT”. Further, the “sensitivity to AZT” value in [6] is listed as “less sensitive to AZT”.

With “N115S: human NDPK-A with Asn 115 changed into Ser; SEQ ID NO: 2”, the “specificity change (R), switch in specificity over analogs” value in series [2] (analog versus natural nucleotide, mutant versus NDPK-A) was “around 100”. For the same molecule, in [3] (ATP and dTDP), the “steady-state activity relative to NDPK-A” value was 1/10. In series [3], this molecule registered a specific activity of 140 U/mg.

Take `Cc1cn([C@H]2C[C@H](O)[C@@H](COP(=O)(O)OP(=O)(O)O)O2)c(=O)[nH]c1=O` [dTDP]: the figures for the “kcat, times lower than wild type enzyme” value in [7] and in series [8] were “three” and “ten times lower”, respectively. The “effect on KM” value in [7] (versus wild type) and in series [8] (versus wild type) was “little effect on KM” each time.

For `Nc1nc2c(ncn2COCCOP(=O)(O)OP(=O)(O)O)c(=O)[nH]1` [Acy-DP, Acyclovir diphosphate], the “improvement of catalytic efficiency of phosphorylation by the mutation” value in series [9] (from [Acy-DP] dependency of kobs) was “seven fold”. For the same molecule, the “phosphorylation rate relative to wild type enzyme” value in series [9] (setting [13]) is given as “seven times faster”. Moreover, the “apparent second order constant, wild type NDP kinase” value in [10] was 670 M⁻¹ s⁻¹. Moreover, the “times faster phosphorylation by N119S NDP kinase than wild type enzyme” value in [11] (setting [13]) is listed as “seven”. The “apparent second order constant, N119S mutant” value in [11] (phospho-enzyme 1 μM, buffer T, 20° C.) is given as 4,500 M^−1s^−1.

B1: N119T: Dd-NDPK with Thr at the position of Asn 119 (protein, UniProt P22887 1-155, looked up, variant N119T)
Nucleoside diphosphate …: MSTNKVNKERTFLAVKPDGVARGLVGEIIARYEKKGFVLVGLKQLVPTKDLAESHYAEHKERPFFGGLVSFITSGPVVAMVFEGKGVVASARLMIGVTNPLASAPGSIRGDFGVDVGRTIIHGSDSVESANREIALWFKPEELLTEVKPNPNLYE
Take B1: the “enzyme reactivity for analogs” value in [12] is “without effect”.

B2: N119S: Dd NDP kinase mutated at position 119, asparagine to serine; SEQ ID NO: 1 (protein, UniProt P22887 1-155, looked up, variant N119S)
Nucleoside diphosphate …: MSTNKVNKERTFLAVKPDGVARGLVGEIIARYEKKGFVLVGLKQLVPTKDLAESHYAEHKERPFFGGLVSFITSGPVVAMVFEGKGVVASARLMIGVTNPLASAPGSIRGDFGVDVGRSIIHGSDSVESANREIALWFKPEELLTEVKPNPNLYE
For B2, in series [12], the “enzyme reactivity for analogs” value is listed as “improvement”. Moreover, the “catalytic constant kcat, times lower than the wild type enzyme” value in series [3] (natural substrates such as dTDP, steady state, Dd-NDPK) was “ten”.
